The target in series [1] is T1, Glucagon-like peptide 1 receptor (Rattus norvegicus) (UniProt P32301).
T1 sequence (whole entry): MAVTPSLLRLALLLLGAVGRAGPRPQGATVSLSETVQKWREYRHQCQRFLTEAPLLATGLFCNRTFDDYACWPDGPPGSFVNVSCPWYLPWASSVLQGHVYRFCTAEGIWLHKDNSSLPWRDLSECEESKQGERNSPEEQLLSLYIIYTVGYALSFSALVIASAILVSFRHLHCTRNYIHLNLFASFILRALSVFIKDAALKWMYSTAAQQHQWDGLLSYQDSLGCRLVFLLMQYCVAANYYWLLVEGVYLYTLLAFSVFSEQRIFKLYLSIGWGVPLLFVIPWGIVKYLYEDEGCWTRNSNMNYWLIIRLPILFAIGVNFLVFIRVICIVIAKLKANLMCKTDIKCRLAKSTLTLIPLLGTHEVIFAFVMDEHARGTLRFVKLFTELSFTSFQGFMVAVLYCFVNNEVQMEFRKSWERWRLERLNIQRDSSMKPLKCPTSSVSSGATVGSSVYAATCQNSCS
The experiment in a line: Agonist activity at rat GLP1 receptor expressed in HEK293 cells assessed as luciferase activity. Format: functional, cell-based.

Series [2] addresses T1, Glucagon-like peptide 1 receptor (Rattus norvegicus). Description: (§1) Agonist activity at rat GLP1 receptor expressed in HEK293 cells assessed as cAMP release. It is filed as functional, cell-based.
Series [3] has the same target. The experiment in a line: (§2) Displacement of [125I]GLP1 from rat GLP1 receptor expressed in HEK293 cells. It is filed as cell-based.
Series [4] addresses T2, Glucagon-like peptide 1 receptor (Rattus norvegicus, UniProt P32301).
T2 sequence (P32301 whole entry): T1 sequence (whole entry)
The series is described as §1. Format: functional, cell-based.

Series [5] deals with T2, Glucagon-like peptide 1 receptor. Described as §2. It is filed as cell-based.
Series [6] concerns the target T1, Glucagon-like peptide 1 receptor (Rattus norvegicus). Description: Agonist activity at rat GLP1 receptor expressed in HEK293 cells assessed as luciferase activity upto 10 uM relative to GLP1. It is filed as functional, cell-based.
The target of series [7] is Glucagon-like peptide 1 receptor (Homo sapiens) (UniProt P43220). The experiment in a line: Activity at human GLP1 receptor expressed in HEK293 cells. Format: cell-based.
Series [8] concerns the target T1, Glucagon-like peptide 1 receptor (Rattus norvegicus). Description: Reversal of agonist activity at rat GLP1 receptor expressed in HEK293 cells assessed as luciferase activity at 10 uM in presence of exendin. Format: functional, cell-based.
Series [9] shares this target. The experiment in a line: Reversal of agonist activity at rat GLP1 receptor expressed in HEK293 cells assessed as luciferase activity at 0.05 uM in presence of exendin. Format: functional, cell-based.
Series [10] in a line: Induction of glucose-induced insulin release in Sprague-Dawley rat islets at 10 uM relative to control. Format: functional.
The subject of series [11] is Mus musculus. The experiment in a line: Suppression of food intake in C57BL/6 mouse at 2 mg, ip after 12 hrs. Format: functional.
The subject of series [12] is Mus musculus. The experiment in a line: Suppression of food intake in ip dosed C57BL/6 mouse after 12 hrs. It is filed as functional.
Series [13] concerns Mus musculus. Description: Suppression of food intake in po dosed C57BL/6 mouse after 2 hrs. Format: functional.
The species entered for series [14] is Mus musculus. Description: Effect on glycemia in C57BL/6-m+/+Leprdb mouse assessed as HbA1c normalization at 2 mg. It is filed as functional, organism-based.
Series [15] concerns Mus musculus. The experiment in a line: Reversal of suppression of food intake in ip dosed C57BL/6 mouse after 12 hrs in presence of exendin. It is filed as functional, organism-based.
Series [16] deals with Mus musculus. The experiment in a line: Reversal of suppression of food intake in po dosed C57BL/6 mouse after 2 hrs in presence of exendin. It is filed as functional, organism-based.
The nature of series [17]: Terminal half life in C57BL/6 mouse at 2 mg, ip. Format: ADME, organism-based. The conditions noted are these: in vivo.
Series [18] deals with Mus musculus. Description: Decrease in HbA1c levels in ip dosed C57BL/6-m+/+Leprdb mouse at 8 mg, ip. Format: functional, organism-based.
For series [19], the system named is Mus musculus. The experiment in a line: Decrease in food intake in ip dosed C57BL/6-m+/+Leprdb mouse. It is filed as functional. Also noted: scale not given: the % may be the effect or the level left.
Series [20] deals with Mus musculus. The experiment in a line: Decrease in HbA1c levels in C57BL/6-m+/+Leprdb mouse at 1 mg, ip. Format: functional, organism-based.
Series [21] relates to Mus musculus. The experiment in a line: Decrease in HbA1c levels in C57BL/6-m+/+Leprdb mouse at 2 mg, ip. Format: functional, organism-based.
The species named for series [22] is Mus musculus. Description: Effect on glycemia in C57BL/6-m+/+Leprdb mouse assessed as fasting glucose normalization at 1 mg. It is filed as functional, organism-based.
Series [23] is filed under the species Mus musculus. The experiment in a line: Effect on glycemia in C57BL/6-m+/+Leprdb mouse assessed as fasting glucose normalization at 2 mg. It is filed as functional, organism-based.
The species entered for series [24] is Mus musculus. Description: Effect on glycemia in C57BL/6-m+/+Leprdb mouse assessed as HbA1c normalization at 1 mg. It is filed as functional, organism-based.
For series [25], the species on record is Mus musculus. Description: Effect on glucose excursion in C57BL/6-m+/+Leprdb mouse assessed as glucose tolerance normalization at 2 mg. Format: functional, organism-based.
The species named for series [26] is Mus musculus. Description: Decrease in fasting insulin in C57BL/6-m+/+Leprdb mouse at 1 mg. Format: functional, organism-based.
For series [27], the species on record is Mus musculus. The experiment in a line: Decrease in fasting insulin in C57BL/6-m+/+Leprdb mouse at 2 mg. Format: functional, organism-based.
The species entered for series [28] is Mus musculus. The experiment in a line: Decrease in total cholesterol in C57BL/6-m+/+Leprdb mouse at 2 mg. It is filed as functional, organism-based.
For series [29], the species on record is Mus musculus. Description: Decrease in high density lipoprotein in C57BL/6-m+/+Leprdb mouse at 2 mg. It is filed as functional, organism-based.
The subject of series [30] is HEK293. Description: Toxicity in HEK293 cells upto 300 uM by MTT assay. Format: cell-based. The conditions noted are these: human. (Tetrazolium dyes change colour on reduction, which living cells bring about.)
For series [31], the species on record is Mus musculus. Description: Toxicity in C57BL/6 mouse treated upto 6 weeks. It is filed as organism-based. The settings on record: in vivo, 1008 h.
Series [32] in a line: Induction of glucose-induced insulin release in Sprague-Dawley rat islets at 100 uM relative to control. Format: functional.

Active and inactive are the calls of the source.

Chain of Glucagon-like peptide 1 receptor (Homo sapiens) (P43220 whole entry): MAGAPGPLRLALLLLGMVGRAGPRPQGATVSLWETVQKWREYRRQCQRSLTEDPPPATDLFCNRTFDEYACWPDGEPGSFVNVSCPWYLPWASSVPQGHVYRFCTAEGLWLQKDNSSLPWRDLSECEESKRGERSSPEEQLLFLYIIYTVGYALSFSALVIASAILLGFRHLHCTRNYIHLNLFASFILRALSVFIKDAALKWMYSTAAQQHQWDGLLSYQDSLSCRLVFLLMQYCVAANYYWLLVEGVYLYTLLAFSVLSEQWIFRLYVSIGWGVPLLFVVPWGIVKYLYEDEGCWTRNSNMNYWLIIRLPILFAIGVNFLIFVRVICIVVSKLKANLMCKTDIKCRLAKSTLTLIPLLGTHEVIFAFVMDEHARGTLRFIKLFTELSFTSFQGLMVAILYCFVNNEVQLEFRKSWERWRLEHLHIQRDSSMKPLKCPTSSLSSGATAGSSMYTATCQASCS

For the compound `CCOc1cc(/C=C2\N=C(c3ccc(NC(C)=O)cc3)OC2=O)ccc1OC(=O)c1cccs1`, the outcome in series [1], in series [2] and in series [3] was Active.

Turning to `COc1cc(C2C(NC(=O)c3ccc(NC(=O)OC(C)(C)C)cc3)(C(=O)O)C(c3ccc(OC(=O)c4cccs4)c(OC)c3)C2(NC(=O)c2ccc(NC(=O)OC(C)(C)C)cc2)C(=O)O)ccc1OC(=O)c1cccs1` (stereo not drawn), the EC50 in series [4] was 2730 nM. In series [5], this compound displayed a Ki of 1470 nM. The outcome in series [6], in series [8], in [9], in [14], in series [15] and in series [16] was Active. Moreover, the result in [18], in [20], in series [21], in [22], in [23] and in series [24] was Active. In addition, the result in [25], in series [26], in series [27], in series [28] and in series [29] was Active. Further, the outcome in series [7] was inactive. In addition, the “fold change (FC)” value in series [10] worked out at 4.5. In addition, the Activity is listed as 54% in series [11], 24.9% in [19], “Non-toxic” in series [30] and “Non-toxic” in series [31]. Further, the ED50 in [12] stood at 1.57 mg; in series [13] it was 0.53 mg. Further, in series [17], the half-life was 7.5 h.

Regarding `COc1cc(C2C(NC(=O)c3ccc(NC(=O)C4CCCC4)cc3)(C(=O)O)C(c3ccc(OC(=O)c4cccs4)c(OC)c3)C2(NC(=O)c2ccc(NC(=O)C3CCCC3)cc2)C(=O)O)ccc1OC(=O)c1cccs1` (stereo not drawn), the EC50 in series [4] is 1080 nM. The affinity in series [5], expressed as Ki, was 287 nM. In [6], the Activity amounted to 37%. In addition, the result in [7] was inactive. Besides, the result in series [8] and in series [9] was Active. In addition, the “fold change (FC)” value in series [32] stood at 2.6.

One may read the EC50 as the concentration needed to bring the measured effect to its halfway point. One may read the Ki as a dissociation constant, usually derived from enzyme kinetics or from competition with a known ligand. As a reminder, the half-life is the time needed for the level to fall by half in the phase considered.

The values are drawn from ChEMBL document CHEMBL1156434, “A nonpeptidic agonist of glucagon-like peptide 1 receptors with efficacy in diabetic db/db mice” (Proc Natl Acad Sci U S A, 2007).
